# Test results: patent US5366983A, “Use of quaternary ammonium compounds to remove salmonella contamination from meat products” (The Board of Trustees of The University of Arkansas, priority 1992, dated 1994)
# Tested on: Salmonella typhimurium ATCC 14028 attached to human buccal epithelial cells
# Assay: microbe, parasite or virus in culture
# Assay type: cell-based
# Conditions: Table A-3
# Procedure: Additional studies on the detachment of Salmonella typhimurium from human buccal epithelial cells were conducted.
# S. typhimurium ATCC 14028 was grown in nutrient broth (BBL Microbiology system, Cockeysville, Md.) for 16 hours at 37° C. The cells were centrifuged and washed twice with 0.008 M phosphate buffered saline (PBS, at pH 7.2) at 4500 rpm for 10 minutes. The last suspension was diluted in PBS to obtain a cell concentration 0.5 to 1×10^9 cells/ml using spectrophotometric measurement. Human epithelial cells were obtained by swabbing the buccal surface of a healthy, nonsmoking donor. […] The number of living cells was estimated and the suspension was diluted to 0.5 to 1×10^5 cells/ml.
# The suspension of the human buccal cells was mixed with an equal volume of the bacterial suspension (3.0 ml), or PBS (0.8 ml) in 10 ml Erlenmeyer flasks. Contact was allowed for 1.5 hours at 35° C. under agitation. After incubation, 1.0 ml of each suspension was transferred into an Eppendorff vial, centrifuged at 3000 rpm for 10 minutes, and washed with PBS. The cells were treated with 1.0 ml PBS or 1.0 ml of the test chemical solution. Treatment was performed by suspending, gently vortexing, and centrifuging at 1500 rpm for 10 minutes. After the treatment, the cells were washed and placed on microscopic slides for examination.
# EC50 represents the inverse measurement of the potency of a compound. EC50 values were determined by a nonlinear regression of the detachment effect versus the cationic surfactant concentration data from Table A-3.
compound,measurement,setting,value
"CCCCCCCCCCCCCCCC[n+]1ccccc1 [CPC, cetylpyridinium chloride]","adherence, mean value of attached bacteria",2.5 ug/ml,73 ± 55
same,"adherence, mean value of attached bacteria",5 ug/ml,42 ± 22
same,"adherence, mean value of attached bacteria",10 ug/ml,28 ± 10
